Experimental data reported in ChEMBL document CHEMBL5113375, “Development of Mcl-1 inhibitors for cancer therapy” (Eur J Med Chem, 2021).

Columns and labels:
OPM-2 = assay: Cytotoxicity against human OPM-2 cells assessed as cell viability; format: functional, cell-based
BCL2/BID [1] = target: T1, BCL2/BID (Homo sapiens, UniProt P10415); assay: Binding affinity to human Bcl-2 (29 to 44 residues)/5-FAM-tagged Bid (unknown origin) assessed as inhibition constant by fluorescence polarization assay; format: protein assay
T1 sequence (P10415 whole entry, one chain of several, the tested form may be a part): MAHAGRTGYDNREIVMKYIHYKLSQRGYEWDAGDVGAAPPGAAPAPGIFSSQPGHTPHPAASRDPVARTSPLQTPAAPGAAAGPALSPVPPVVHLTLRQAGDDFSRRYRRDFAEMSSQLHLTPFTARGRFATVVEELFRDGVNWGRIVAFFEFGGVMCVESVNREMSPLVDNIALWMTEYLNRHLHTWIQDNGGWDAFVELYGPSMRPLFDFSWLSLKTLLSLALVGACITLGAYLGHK

[2] = target: Bcl-xL/Bcl-2-like protein 11 (Homo sapiens, UniProt Q07817); assay: Binding affinity to GST-tagged Bcl-xL/5-FAM-tagged Bim (unknown origin) assessed as inhibition constant by fluorescence polarization assay; format: protein assay
Chain of Bcl-xL/Bcl-2-like protein 11 (Q07817 whole entry, the tested form may be a part): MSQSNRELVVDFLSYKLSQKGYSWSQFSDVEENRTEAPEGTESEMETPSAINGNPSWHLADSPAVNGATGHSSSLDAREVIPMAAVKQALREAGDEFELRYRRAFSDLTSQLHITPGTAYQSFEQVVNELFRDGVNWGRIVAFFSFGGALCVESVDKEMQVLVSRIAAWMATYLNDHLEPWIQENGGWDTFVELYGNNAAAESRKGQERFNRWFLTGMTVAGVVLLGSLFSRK
Chain of Bcl-xL/Bcl-2-like protein 11 (O43521 whole entry, further chain, the tested form may be a part): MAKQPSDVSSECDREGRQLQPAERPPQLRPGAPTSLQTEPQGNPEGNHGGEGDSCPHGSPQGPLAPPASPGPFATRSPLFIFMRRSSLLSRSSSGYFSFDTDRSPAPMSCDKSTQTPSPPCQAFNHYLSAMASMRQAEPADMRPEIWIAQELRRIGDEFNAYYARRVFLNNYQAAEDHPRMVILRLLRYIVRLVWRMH

[3] = target: T2, Induced myeloid leukemia cell differentiation protein Mcl-1/BH3-interacting domain death agonist (Homo sapiens, UniProt Q07820); assay: Binding affinity to human N-terminal 8xHis tagged Mcl-1/5-FAM-tagged Bid (unknown origin) assessed as inhibition constant by fluorescence polarization assay; format: protein assay
T2 sequence (Q07820 whole entry, one chain of several, the tested form may be a part): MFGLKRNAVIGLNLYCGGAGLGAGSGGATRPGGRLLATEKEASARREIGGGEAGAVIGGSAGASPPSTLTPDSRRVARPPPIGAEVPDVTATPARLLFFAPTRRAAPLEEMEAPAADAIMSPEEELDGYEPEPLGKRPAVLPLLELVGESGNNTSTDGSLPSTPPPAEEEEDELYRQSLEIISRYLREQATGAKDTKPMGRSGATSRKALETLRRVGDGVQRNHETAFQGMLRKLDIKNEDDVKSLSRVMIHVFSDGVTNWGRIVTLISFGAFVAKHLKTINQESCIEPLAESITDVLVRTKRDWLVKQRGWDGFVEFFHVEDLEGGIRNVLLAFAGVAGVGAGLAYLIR

[4] = target: T3, Bcl-xL/BH3-interacting domain death agonist (Homo sapiens, UniProt Q07817); assay: Inhibition of Bcl-xL/Bid complex (unknown origin); format: protein assay
T3 sequence (Q07817 whole entry, one chain of several, the tested form may be a part): as the sequence (Q07817 whole entry, the tested form may be a part) above

BCL2A1/BID [5] = target: T4, BCL2A1/BID (Homo sapiens, UniProt Q16548); assay: Inhibition of Bfl-1/Bid (unknown origin); format: protein assay
T4 sequence (Q16548 whole entry): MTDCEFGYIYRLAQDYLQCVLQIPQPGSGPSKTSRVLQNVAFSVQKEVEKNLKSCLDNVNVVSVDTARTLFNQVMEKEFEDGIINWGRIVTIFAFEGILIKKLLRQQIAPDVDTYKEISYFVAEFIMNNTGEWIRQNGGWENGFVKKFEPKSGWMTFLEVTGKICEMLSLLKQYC
T4 sequence (P55957 whole entry): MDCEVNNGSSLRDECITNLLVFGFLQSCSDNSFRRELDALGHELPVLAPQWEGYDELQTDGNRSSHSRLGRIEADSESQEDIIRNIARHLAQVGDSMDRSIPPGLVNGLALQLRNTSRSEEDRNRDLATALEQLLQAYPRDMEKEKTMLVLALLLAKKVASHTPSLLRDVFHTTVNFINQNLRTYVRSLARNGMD

[6] = Binding affinity to Bcl-xL/Bad (unknown origin) assessed as inhibition constant by fluorescence polarisation assay; design: species or system Homo sapiens
BCL2/BID [7] = target: T1, BCL2/BID; assay: Inhibition of Bcl-2/Bid (unknown origin); format: protein assay
BCL2/BAD = BCL2/BAD (Homo sapiens, UniProt P10415); assay: Binding affinity to Bcl-2/Bad (unknown origin) assessed as inhibition constant by fluorescence polarisation assay; format: protein assay
Chain of BCL2/BAD (Q92934 whole entry): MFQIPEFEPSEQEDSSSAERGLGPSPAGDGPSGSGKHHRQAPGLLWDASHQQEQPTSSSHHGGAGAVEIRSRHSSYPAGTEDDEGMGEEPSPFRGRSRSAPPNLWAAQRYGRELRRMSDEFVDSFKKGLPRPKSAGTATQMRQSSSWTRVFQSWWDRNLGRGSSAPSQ
Chain of BCL2/BAD (P10415 whole entry): as the sequence (P10415 whole entry, one chain of several, the tested form may be a part) above

BCL2L2/BID [8] = target: T5, BCL2L2/BID (Homo sapiens, UniProt P55957+Q92843); assay: Inhibition of Bcl-W/Bid (unknown origin); format: protein assay
T5 sequence (Q92843 whole entry): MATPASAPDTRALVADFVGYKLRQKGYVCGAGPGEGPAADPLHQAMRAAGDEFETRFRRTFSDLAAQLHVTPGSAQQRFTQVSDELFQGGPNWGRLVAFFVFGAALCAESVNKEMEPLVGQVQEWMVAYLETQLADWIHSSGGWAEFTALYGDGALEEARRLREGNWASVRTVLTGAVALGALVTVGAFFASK
T5 sequence (P55957 whole entry): T4 sequence (P55957 whole entry)

BCL2L10/BID = BCL2L10/BID (Homo sapiens, UniProt P55957+Q9HD36); assay: Inhibition of Bcl-B/Bid (unknown origin); format: protein assay
Chain of BCL2L10/BID (Q9HD36 whole entry, one chain of several, the tested form may be a part): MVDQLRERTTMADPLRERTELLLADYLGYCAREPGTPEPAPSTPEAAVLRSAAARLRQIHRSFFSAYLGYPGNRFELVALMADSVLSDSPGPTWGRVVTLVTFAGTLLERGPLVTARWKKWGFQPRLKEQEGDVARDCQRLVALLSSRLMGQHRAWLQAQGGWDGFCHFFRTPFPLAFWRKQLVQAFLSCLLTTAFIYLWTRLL

[9] = target: T2, Induced myeloid leukemia cell differentiation protein Mcl-1/BH3-interacting domain death agonist; assay: Inhibition of Mcl-1/Bid (unknown origin); format: protein assay
Bcl-xL/BAK [10] = target: T6, Bcl-xL/BAK (Homo sapiens, UniProt Q07817); assay: Binding affinity to Bcl-xL/Bak (unknown origin) assessed as inhibition constant by fluorescence polarization assay; format: protein assay
T6 sequence (Q07817 whole entry, one chain of several): as the sequence (Q07817 whole entry, the tested form may be a part) above

Bcl-xL/BAK [11] = target: T6, Bcl-xL/BAK; assay: Binding affinity to Bcl-xL/Bak (unknown origin) assessed as dissociation constant by ITC method; format: protein assay
MCL1-BAK1 complex [12] = target: T7, MCL1-BAK1 complex (Homo sapiens, UniProt Q07820); assay: Binding affinity to Mcl-1/Bak (unknown origin) assessed as inhibition constant by fluorescence polarization assay; format: protein-complex assay
T7 sequence (Q07820 whole entry, one chain of several): as the sequence (Q07820 whole entry, one chain of several, the tested form may be a part) above

Bcl-xL/BAK [13] = target: T6, Bcl-xL/BAK; assay: Binding affinity to human Bcl-xL/Bak (unkown origin) incubated for 1 hr by fluorescence polarization assay; format: protein assay
[14] = Binding affinity to mouse Mcl-1/Bak (unkown origin) incubated for 1 hr by fluorescence polarization assay
MCL1-BAK1 complex [15] = target: T7, MCL1-BAK1 complex; assay: Inhibition of Mcl-1/Bak (unknown origin); format: protein-complex assay
[16] = target: Apoptosis regulator Bcl-2/Bcl-2 homologous antagonist/killer (Homo sapiens, UniProt P10415+Q16611); assay: Inhibition of Bcl-2/Bak (unknown origin); format: protein assay
Chain of Apoptosis regulator Bcl-2/Bcl-2 homologous antagonist/killer (P10415 whole entry, one chain of several): as the sequence (P10415 whole entry, one chain of several, the tested form may be a part) above

BCL2A1/BAK1 = target: T8, BCL2A1/BAK1 (Homo sapiens, UniProt Q16548+Q16611); assay: Inhibition of Bfl-1/Bak (unknown origin); format: protein assay
T8 sequence (Q16611 whole entry): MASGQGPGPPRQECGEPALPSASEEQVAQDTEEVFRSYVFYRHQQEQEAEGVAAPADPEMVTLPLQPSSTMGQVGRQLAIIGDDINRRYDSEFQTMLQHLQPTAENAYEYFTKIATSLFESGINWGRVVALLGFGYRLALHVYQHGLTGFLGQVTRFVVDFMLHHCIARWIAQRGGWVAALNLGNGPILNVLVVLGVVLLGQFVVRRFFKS
T8 sequence (Q16548 whole entry): T4 sequence (Q16548 whole entry)

Bcl-xL/BAK [17] = target: T6, Bcl-xL/BAK; assay: Inhibition of Bcl-xL/Bak (unknown origin); format: protein assay
[18] = target: T9, Induced myeloid leukemia cell differentiation protein Mcl-1 (Homo sapiens, UniProt Q07820); assay: Binding affinity to Mcl-1 (unknown origin) assessed as inhibition constant by fluorescence polarization assay
T9 sequence (Q07820 whole entry, the tested form may be a part): as the sequence (Q07820 whole entry, one chain of several, the tested form may be a part) above

[19] = target: T3, Bcl-xL/BH3-interacting domain death agonist; assay: Binding affinity to Bcl-xL/Bid (unknown origin) by fluorescence polarization assay; format: protein assay
BCL2/BID [20] = target: T1, BCL2/BID; assay: Binding affinity to Bcl-2/Bid (unknown origin) by fluorescence polarization assay; format: protein assay
BCL2L2/BID [21] = target: T5, BCL2L2/BID; assay: Binding affinity to Bcl-W/Bid (unknown origin) by fluorescence polarization assay; format: protein assay
BCL2A1/BID [22] = target: T4, BCL2A1/BID; assay: Binding affinity to Bfl-1/Bid (unknown origin) by fluorescence polarization assay; format: protein assay
[23] = target: T2, Induced myeloid leukemia cell differentiation protein Mcl-1/BH3-interacting domain death agonist; assay: Binding affinity to Mcl-1/Bid (unknown origin) assessed as inhibition constant by fluorescence polarization assay; format: protein assay
Bcl-xL/BAK [24] = target: T6, Bcl-xL/BAK; assay: Inhibition of Bcl-xL/Bak (unknown origin) by fluorescence polarization assay; format: protein assay
[25] = target: Induced myeloid leukemia cell differentiation protein Mcl-1/Bcl-2-like protein 11 (Homo sapiens, UniProt Q07820); assay: Inhibition of Mcl-1/Bim (unknown origin) by fluorescence polarisation assay; format: protein assay
Chain of Induced myeloid leukemia cell differentiation protein Mcl-1/Bcl-2-like protein 11 (Q07820 whole entry): as the sequence (Q07820 whole entry, one chain of several, the tested form may be a part) above
Chain of Induced myeloid leukemia cell differentiation protein Mcl-1/Bcl-2-like protein 11 (O43521 whole entry, further chain): as the sequence (O43521 whole entry, further chain, the tested form may be a part) above

MCL1-BAK1 complex [26] = target: T7, MCL1-BAK1 complex; assay: Inhibition of Bak/Mcl-1 (unknown origin) protein protein interaction by fluorescence polarization assay; format: protein-complex assay
[27] = Inhibition of Bak/Bcl-xL (unknown origin) protein protein interaction by fluorescence polarization assay; design: species or system Homo sapiens
[28] = Binding affinity to Bak/Bcl-xL (unknown origin) protein protein interaction by fluorescence polarization assay; design: species or system Homo sapiens
[29] = target: T9, Induced myeloid leukemia cell differentiation protein Mcl-1; assay: Binding affinity to Mcl-1 (unknown origin)
[30] = target: T2, Induced myeloid leukemia cell differentiation protein Mcl-1/BH3-interacting domain death agonist; assay: Inhibition of Mcl-1/Bid (unknown origin) by fluorescence polarization assay; format: protein assay
[31] = target: T3, Bcl-xL/BH3-interacting domain death agonist; assay: Inhibition of Bcl-xL/Bid (unknown origin) by fluorescence polarization assay; format: protein assay
BCL2A1/BID [32] = target: T4, BCL2A1/BID; assay: Binding affinity to Bfl-1/Bid (unknown origin) incubated for 3 hrs by fluorescence polarization-based binding assay; format: protein assay
[33] = target: T2, Induced myeloid leukemia cell differentiation protein Mcl-1/BH3-interacting domain death agonist; assay: Binding affinity to Mcl-1/Bid (unknown origin) incubated for 3 hrs by fluorescence polarization-based binding assay; format: protein assay
[34] = target: Apoptosis regulator Bcl-2 (Homo sapiens, UniProt P10415); assay: Binding affinity to Bcl-2 (unknown origin) assessed as inhibition constant
Chain of Apoptosis regulator Bcl-2 (P10415 whole entry): as the sequence (P10415 whole entry, one chain of several, the tested form may be a part) above

[35] = target: T9, Induced myeloid leukemia cell differentiation protein Mcl-1; assay: Binding affinity to Mcl-1 (unknown origin) assessed as inhibition constant
Bcl-2-like protein 1 = Bcl-2-like protein 1 (Homo sapiens, UniProt Q07817); assay: Binding affinity to Bcl-xL (unknown origin) assessed as inhibition constant
Chain of Bcl-2-like protein 1 (Q07817 whole entry, the tested form may be a part): as the sequence (Q07817 whole entry, the tested form may be a part) above

[36] = target: T2, Induced myeloid leukemia cell differentiation protein Mcl-1/BH3-interacting domain death agonist; assay: Inhibition of Mcl-1/FITC-labelled Bid (unknown origin) protein protein interaction incubated for 20 to 60 mins by fluorescence polarisation binding assay
MCF7 = assay: Induction of apoptosis in Bcl-2 dependent human MCF7 cells treated for 48 hrs by Annexin V-FITC staining based flow cytometric analysis; format: functional, cell-based; settings: MCF7, 48 h
[37] = Induction of apoptosis in Mcl-1 dependent […] cells treated for 48 hrs by Annexin V-FITC staining based flow cytometric analysis; format: functional, cell-based; settings: Mus musculus, H22, 48 h

O=C(O)C(O)c1ccccc1 (stereo not drawn) [MANDELIC ACID]
IC50 (OPM-2): 19 nM

O=C(Nc1ccccc1)C1=CN=c2s/c(=C\c3cn(Cc4ccccc4F)c4ccccc34)c(=O)n2C1c1ccc(F)cc1 (stereo not drawn)
Ki (BCL2/BID [1]): 2670 nM | Ki [2]: 1640 nM | Ki [3]: 1050 nM

O=C(O[C@@H]1Cc2c(O)cc(O)cc2O[C@@H]1c1cc(O)c(O)c(O)c1)c1cc(O)c(O)c(O)c1 [EPIGALOCATECHIN GALLATE]
IC50 [4]: 590 nM | IC50 (BCL2A1/BID [5]): 1790 nM | Ki [6]: 335 nM | IC50 (BCL2/BID [7]): 450 nM | Ki (BCL2/BAD): 490 nM | IC50 (BCL2L2/BID [8]): 2330 nM | IC50 (BCL2L10/BID): 360 nM | IC50 [9]: 920 nM

COc1ccc(-c2ccc(/C=C3\SC(=S)N([C@@H](Cc4ccccc4)C(=O)O)C3=O)cn2)cc1OC
Ki (Bcl-xL/BAK [10]): > 100000 nM | Kd (Bcl-xL/BAK [11]): > 750000 nM | Ki (MCL1-BAK1 complex [12]): 8000 nM

CC1=C[C@@H](/C=C(\C)c2ccc(C(=O)O)cc2)[C@]2(C(=O)O)C=C[C@@H](CCOC(=O)c3ccc(Oc4ccccc4)cc3)C[C@@H]2C1
Ki (Bcl-xL/BAK [13]): 700 nM | Ki [14]: 500 nM

Cc1cc2c(O)c(-c3ccc4c(C(=O)NCC(C)c5ccccc5)c(O)c(O)cc4c3O)c(C)cc2c(C(=O)NCC(C)c2ccccc2)c1C (stereo not drawn)
IC50 (MCL1-BAK1 complex [15]): 620 nM | IC50 [16]: 320 nM | IC50 (BCL2A1/BAK1): 200 nM | IC50 (Bcl-xL/BAK [17]): 310 nM

O=C(O)CSc1cc(NS(=O)(=O)c2cccc(Br)c2)c2ccccc2c1O
Ki [18]: 180 nM | Ki [19]: 33000 nM | Ki (BCL2/BID [20]): 23800 nM | Ki (BCL2L2/BID [21]): 8190 nM | Ki (BCL2A1/BID [22]): 5330 nM | Ki [23]: 490 nM

CC(C)Cc1cc(-c2ccc(-c3ccc(OCC(=O)O)cc3CC(C)C)cc2Cc2ccccc2)ccc1OCCC(=O)O
IC50 (Bcl-xL/BAK [24]): 1500 nM | IC50 [25]: 4900 nM

CC(C)Oc1cc(C(=O)Nc2ccc(C(=O)Nc3ccc(C(=O)O)cc3OC(C)C)nc2OC(C)C)ccc1N
IC50 (MCL1-BAK1 complex [26]): 10200 nM | IC50 [27]: 394 nM | Ki [28]: 179 nM

CC1=C(C2=C(C)C(=O)c3c(cc(O)c(O)c3C(C)C)C2=O)C(=O)c2cc(O)c(O)c(C(C)C)c2C1=O
Ki [29]: 25000 nM | IC50 [30]: 25 nM | IC50 [31]: 660 nM

O=C(CSc1nnc(-c2ccco2)c(-c2ccco2)n1)Nc1ccccc1
Ki (BCL2A1/BID [32]): 4900 nM | Ki [33]: 3200 nM

O=C(O)C1C2CC(Sc3ccccc3[N+](=O)[O-])C(Cl)C2c2cc(Cl)cc3c2N1CC1CC=CC31 (stereo not drawn)
Ki [34]: 15000 nM | Ki [35]: 530 nM | Ki (Bcl-2-like protein 1): ≥ 50000 nM

Cc1ccc(S(=O)(=O)/N=C2\C=C(Sc3nc[nH]n3)C(=O)c3ccccc32)cc1
IC50 [36]: 450 nM

O=C(O)c1cc2ccccc2n1S(=O)(=O)c1ccc(OCc2cccc(Cl)c2)cc1
IC50 (MCF7): 19200 nM | IC50 [37]: 9200 nM
